# In paper PMC3365592 (European Journal of Medicinal Chemistry, 2012):
# Target: T1, 5-HT1A receptors (Rattus norvegicus, UniProt P19327)
# T1 sequence (P19327 1-422): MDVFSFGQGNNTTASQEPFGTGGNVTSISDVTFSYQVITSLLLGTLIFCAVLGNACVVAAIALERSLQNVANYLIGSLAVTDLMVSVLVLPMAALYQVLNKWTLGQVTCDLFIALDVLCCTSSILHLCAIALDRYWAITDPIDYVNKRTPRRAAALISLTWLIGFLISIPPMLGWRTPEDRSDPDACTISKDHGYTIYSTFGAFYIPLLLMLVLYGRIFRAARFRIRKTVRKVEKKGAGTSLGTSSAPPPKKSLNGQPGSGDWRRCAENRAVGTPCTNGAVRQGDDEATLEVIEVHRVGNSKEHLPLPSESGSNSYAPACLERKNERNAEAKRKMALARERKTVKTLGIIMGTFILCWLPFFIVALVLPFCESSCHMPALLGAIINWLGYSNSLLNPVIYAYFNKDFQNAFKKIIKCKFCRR
# Assay: 5-HT1A receptor binding experiments
# Conditions: not given
row,Compound,Ki [nM]
1,"CC1CN(c2ccc3cc([N+](=O)[O-])ccc3n2)CCN1CCCCN1C(=O)CCCC1=O (stereo not shown) [Compound 3, 1-{4-[2-Methyl-4-(6-nitroquinolin-2-yl)piperazin-1-ylo]butyl}piperidine-2,6-dione]",711 ± 21
2,"O=C1CCCC(=O)N1CCCCN1CCN(c2ccc3cc([N+](=O)[O-])ccc3n2)CC1 [Compound 4, 1-{4-[4-(6-Nitro-quinolin-2-yl)-piperazin-1-yl]-butyl}-piperidine-2,6-dione]",10600 ± 3500
3,"O=C1CC2(CCCC2)CC(=O)N1CCCCN1CCN(c2ccc3cc([N+](=O)[O-])ccc3n2)CC1 [Compound 6, 8-{4-[4-(6-Nitro-quinolin-2-yl)-piperazin-1-yl]-butyl}-8-aza-spiro[4.5]decane-7,9-dione]",1100 ± 400
4,"CC1(C)CC(=O)N(CCCCN2CCN(c3ccc4cc([N+](=O)[O-])ccc4n3)CC2)C(=O)C1 [Compound 8, 4,4-Dimethyl-1-{4-[4-(6-nitro-quinolin-2-yl)-piperazin-1-yl]-butyl}-piperidine-2,6-dione]",2100 ± 400
5,"O=C1c2ccccc2C(=O)N1CCCCN1CCN(c2ccc3cc([N+](=O)[O-])ccc3n2)CC1 [Compound 9, 2-{4-[4-(6-Nitro-quinolin-2-yl)-piperazin-1-yl]-butyl}-isoindole-1,3-dione]",59000 ± 23100
6,"CC1(C)CC(=O)N(CCCCN2CCN(c3ccc4c(Cl)cccc4n3)CC2)C(=O)C1 [Compound 10, 1-{4-[4-(5-Chloroquinolin-2-yl)piperazin-1-yl]butyl}-4,4-di-methylopiperydine-2,6-dione]",1400 ± 100

# Target: T1, 5-HT1A receptors
# Assay: not given
# Conditions: read-out: 5-HT1A Ki ± SEM; cited from earlier work
row,Compound,Ki [nM]
1,CC1CN(c2ccc3ccccc3n2)CCN1CCCCN1C(=O)c2ccccc2C1=O (stereo not shown) [Compound 12],13
2,O=C1c2ccccc2C(=O)N1CCCCN1CCN(c2ccc3ccccc3n2)CC1 [Compound 13],39
3,CC1CN(c2ccc3ccccc3n2)CCN1CCCN1C(=O)c2ccccc2C1=O (stereo not shown) [Compound 14],275
4,CC1CN(c2ccc3ccccc3n2)CCN1CCCCN1C(=O)CCCC1=O (stereo not shown) [Compound 15],37 ± 6
5,CC1CN(c2ccc3ccccc3n2)CCN1CCCCN1C(=O)CC2(CCCC2)CC1=O (stereo not shown) [Compound 16],24 ± 3
6,CC1CN(c2ccc3ccccc3n2)CCN1CCCCN1C(=O)CC(C)(C)CC1=O (stereo not shown) [Compound 18],15 ± 3
7,CC1(C)CC(=O)N(CCCCN2CCN(c3ccc4ccccc4n3)CC2)C(=O)C1 [Compound 19],11 ± 2
